{"source": "patent US7041815B2", "about": "“Sporamin promoter and uses thereof” (Sinon Corporation, priority 2001, dated 2006)", "molecules": {"B1": {"name": "sporamin promoter: 1.25 kb sweet potato (Ipomoea batatas) sporamin promoter sequence, SEQ ID NO:1 (nucleic acid)", "DNA": "CGACGGCCCGGGCTAGGTCAAGTAACCCGAACTTGGTCAAGTTTGTTATAACTTATTCTCCCTTTTTCGTGAGGGCGGTTAGGGGACTTAGTATAAATAGGAGTGTAATCGGGCTTGTTAAGACATATTGAACTCACCTGTAATAGCATTACATTTCTCGTAAATACGTACAATATCCTTGTCTTTCCAATAACATTTTTGTCTTTTACCATTATCTTTTATCCAATCCTTTAATTATCGAGTTTGTTAATTCAGATCACCCAAATTAATTAAATCCATCATTTGGATTAAGTTATCTTACTTTACTAATTAGAGTTTTTATCTTCAGAGGAAGGAAGAAGAAAATTAATTGACATGACTCTCATCGGGTTGCACTCCACCCATTATGTTATACAATGCAAACTCTTTTAAAATAAATTAAAATTATATATATATATAATAGTGCAACCTACATCACTTTTTCAATGTGGGACGAAAGCACCTTCAAAAGTCTTTCGAACCCCATTTTTCCTCGAATATATTTTGAGAATCAATTTCTCAATTAATCATTATTATCCATCTTCGTGTACATATATAATATATATATCACATTAAACATCTAACTTAGAAGAACTCAAATTTATTTTTAACTCTACTTATATCAAAAGTGGACTCTACTGAAAATTATACCACAAAATGATATTTTAAACGTTATATTTAACAAAAATTTCTGACATTATCTTATTTAATCTTCTACTAGTTAGAATAATAAAACAAATTTCACTCATAACATAAATTTAAATAGTGATCGTGAATTTTTACGGAAATTAATCAAATAATTGTATGTAATAATGTAATGTAATGAATTTTGATGATGGGTAAAATGTATTTTAATTATTACACGACTTGCCTTCTTTAATTTGTTCTTAGGATCCTAGACTTCATCCCTGCATAGCAAAACCATTGGACACTTGGACGGCCACAAATCATTTCTATTTTCTCCCAACTCCTCCTGTCAGCATGGGATCATTATCAACTTTATCTCATCCCATTACACACCGTAAGTGTACCATCCATCGCTCAATCACTGTATACTTAAATCTCCAGATTAAGTCACTAAATAACTGTGTTGGACTGTGAAAACTTTGAGTAAAAAAAGGCAAAATACTCTTAAAACTGTACAAAAAACAATAATTCAACCCTTACTCTTGTTGTCTATAAATTGGATGCATGAGAGCTCAACACAACACAACACCACCAACAAATTAAACATCATTACCTCTTAGCTTTTCTCCCAAGTTGTC", "modifications": "Ipomoea batatas"}}, "format_in_all_cases": "in vivo, Nicotiana tabaccum cv. W38", "key": {"[1]": {"test_system": "sporamin promoter fused to the GUS reporter gene", "test": "Pspoa-GUS activity in response to elicitors sprayed onto leaves (fluorometric GUS assay)", "conditions": "for effect on the sporamin promoter function (in words): treatment alone", "method": "The plasmid was transformed into tobacco cells (Nicotiana tabaccum cv. W38) using Agrobacterium tumefaciens LBA4404 in the leaf disc method (Hörsch et al. (1985). Science 227:1229–1231). […] Two lines, Tspoa11 and Tspoa37 were selected for further analysis. GUS activity was measured in the leaves of plants obtained from these lines as follows. A middle leaf of the mature tobacco plant was injured with a scissors. Two hours later, wounded and unwounded leaves were harvested, mixed with GUS extraction buffer (50 mM sodium phosphate, pH 7.0, 10 mM EDTA, 10 mM β-mercaptoethanol, 0.1% sodium lauryl sarcosine, 0.1% Triton X-100), frozen, and grounded into a fine powder with a mortar and pestle while in liquid nitrogen. The sample was thawed and centrifuged at 12,000×g for 10 minutes at 4° C. The total protein content was determined using the method of Bradford ((1976) Anal. Biochem. 72:248–254). GUS activity was measured in a fluorometric assay by the addition of 4-methylumbelliferyl-β-D-glucuronide substrate and monitoring the reaction in a […] to determine […] of activity following the method of Jefferson ((1987) EMBO J 6:3901–3908).\nThe activity the Pspoa-GUS fusion was monitored in response to spraying with the elicitor, methyl jasmonate. Solutions of 50 μM and 100 μM methyl jasmonate were prepared and sprayed onto leaves using a commercial atomizer. Sodium phosphate buffer, pH 7.0, was used as a control solution.\nThe activity of the sporamin promoter fused to the GUS reporter gene was monitored in response to abscisic acid (ABA). Solutions of 100 μM and 200 μM ABA were prepared and sprayed onto leaves using a commercial atomizer."}, "[2]": {"test_system": "sporamin promoter fused to the GUS reporter gene", "test": "Pspoa-GUS activity in response to elicitors sprayed onto leaves (fluorometric GUS assay)", "conditions": "1 mM sprayed onto leaves of Pspoa-GUS tobacco"}, "[3]": {"test_system": "GUS reporter gene", "test": "Pspoa-GUS activity in response to leaf wounding (fluorometric GUS assay)", "text": "To analyze the properties of the sporamin promoter, the promoter was operably linked to the reporter gene β-glucuronidase (GUS). The plasmid pBI101 is a Ti plasmid binary vector harboring the GUS gene in a form lacking a promoter (Clontech, Palo Alto Calif.). The sporamin promoter was excised with the restriction endonucleases XbaI and BamHI, isolated, and ligated into compatible sites of a restricted pBI101 nucleic acid. The resulting plasmid construct, termed pBI101/Pspoa, was verified by restriction mapping and nucleic acid sequencing.\nTwo lines, Tspoa11 and Tspoa37 were selected for further analysis. GUS activity was measured in the leaves of plants obtained from these lines as follows. A middle leaf of the mature tobacco plant was injured with a scissors. Two hours later, wounded and unwounded leaves were harvested, mixed with GUS extraction buffer (50 mM sodium phosphate, pH 7.0, 10 mM EDTA, 10 mM β-mercaptoethanol, 0.1% sodium lauryl sarcosine, 0.1% Triton X-100), frozen, and grounded into a fine powder with a mortar and pestle while in liquid nitrogen. The sample was thawed and centrifuged at 12,000×g for 10 minutes at 4° C.\nGUS activity was monitored as described above at various intervals after leaf wounding."}, "[4]": {"conditions": "100 μM sprayed onto leaves of Pspoa-GUS tobacco"}, "[5]": {"conditions": "200 μM sprayed onto leaves of Pspoa-GUS tobacco"}}}
{"molecule": "CC1=CC(=O)CC(C)(C)[C@@]1(O)/C=C/C(C)=C\\C(=O)O", "note": "[ABA, abscisic acid]", "values": [{"measurement": "GUS activity", "setting": "[1]; [4]", "result": 170, "unit": "nmole MU/min/mg protein"}, {"measurement": "induction of the sporamin promoter (in words)", "setting": "[1]; 100 μM, fluorometric assay", "result": "potent inducer"}, {"measurement": "GUS activity", "setting": "[1]; [5]", "result": 60, "unit": "nmole MU/min/mg protein"}]}
{"molecule": "O=C(O)c1ccccc1O", "note": "[SA, salicylic acid]", "values": [{"measurement": "GUS activity", "setting": "[1]; [5]", "result": 15, "unit": "nmole MU/min/mg protein"}, {"measurement": "sporamin promoter activity when treatment precedes wounding or methyl jasmonate treatment (in words)", "setting": "[1]; pre-treatment before wounding / methyl jasmonate", "result": "less sporamin promoter activity was observed"}, {"measurement": "effect on the sporamin promoter function (in words)", "setting": "[1]", "result": "no effect"}, {"measurement": "GUS activity", "setting": "[2]", "result": 21, "unit": "nmole MU/min/mg protein"}]}
{"molecule": "C=C", "note": "[ethylene]", "values": [{"measurement": "effect on the sporamin promoter function (in words)", "setting": "[1]", "result": "no effect"}]}
{"molecule": "CC/C=C\\CC1C(=O)CCC1CC(=O)OC", "note": "(stereo not shown) [methyl jasmonate]", "values": [{"measurement": "GUS activity", "setting": "[1]; 50 μM sprayed onto leaves of Pspoa-GUS tobacco", "result": 420, "unit": "nmole MU/min/mg protein"}, {"measurement": "GUS activity", "setting": "[1]; [4]", "result": 225, "unit": "nmole MU/min/mg protein"}, {"measurement": "GUS activity increase", "setting": "[1]; two hours after spraying with 50 μM", "result": 37, "unit": "fold"}, {"measurement": "GUS activity increase", "setting": "[1]; two hours after spraying with 100 μM", "result": 20, "unit": "fold"}]}
{"molecule": "B1", "values": [{"measurement": "time GUS expression remained above 250 nmole MU/min/mg after wounding", "setting": "[3]; leaf wounding", "result": "at least 50 hours"}, {"measurement": "time to induction of GUS expression after wounding", "setting": "[3]; leaf wounding", "result": "≤ 15", "unit": "min"}, {"measurement": "maximum GUS expression level over the uninduced (unwounded) level", "setting": "[3]; maximum at 12 hours after wounding", "result": 16, "unit": "fold"}, {"measurement": "level of GUS expression after leaf wounding", "setting": "[3]; within 2 hours of wounding", "result": "over 250 nmole MU/min/mg of protein"}]}
